SMILES strings stand for the structures.

The test system of this experiment is HIF. Description: Assay for inhibitory activity against HIF activity (HIF1 luciferase reporter cell line). In kind it is cell-based, human. Particulars: Homo sapiens; HEK293 HIF1 reporter cell line, 1% oxygen, 6 hours, luciferase activity 50% inhibited. From the text: In order to assay the compounds of the present invention for inhibitory activity against HIF activity, the HIF1 reporter plasmid (Panomics) that is designed to control the expression of luciferase by HIF was employed. The HIF1 reporter plasmid and the pTK-Hyg plasmid (Clontech), which carries a hygromycin resistant gene, were co-transfected into the HEK293 cell line (the Korean Cell Line Bank, KCLB No. 21573), derived from the human kidney, with the aid of Effectene transfection reagent (Qiagen). Then, the cells were cultured for 3 weeks on a medium containing 200 μg/mL hygromycin to select transformants resistant to hygromycin. The cell colonies derived from single cells were transferred to 24-well plates to secure a reporter cell line. The cells were seeded at a density of 4×10^4 cells/well into 96-well plates containing DMEM and incubated for 24 hours before treatment with the compounds of the present invention at a concentration of 25 μM, 5 μM, 1 μM, 200 nM, 40 nM, 8 nM, 1.6 nM, 320 pM, 64 pM, 12.8 pM, 2.56 pM, 512 fM, 102 fM, 20.4 fM, or an amount between any two concentrations above as shown in FIGS. 1A to 1C. Under 1% oxygen condition, the cells were incubated for 6 hours and then, the medium was removed. The cells were lyzed by incubation for 5 min with 100 μL of the mixture of Bright-Glo™ luciferase assay buffer and Bright-Glo™ luciferase assay substrate (Promega). The whole cell lysate was transferred to 96-well, white plates (PerkinElmer) and measured for luminescence using Victor™ 3 (PerkinElmer). From the luminescence measurements, IC50 (a concentration of the compound at which luciferase activity was 50% inhibited) was calculated using the GraphPad Prism™ 4 program. The results are summarized in Table 2 and illustrated in FIGS. 1A to 1C.
(In general: Reporter assays use an easily measured gene product as a stand-in for the process of interest.)

As a reminder, the IC50 is the concentration that gives 50% inhibition. `CO/C=C(/C(=O)OC)c1ccccc1COc1cc(/C(C)=N/O)ccc1OC` [Compound 37, (E)-methyl 2-(2-((5-((E)-1-(hydroxyimino)ethyl)-2-methoxyphenoxy)-methyl)phenyl)-3-methoxyacrylate] registered an IC50 of 7220 nM.

Take `CO/C=C(/C(=O)OC)c1ccccc1COc1ccc(F)cc1` [Compound 19, (E)-methyl 2-(2-((4-fluorophenoxy)methyl)phenyl)-3-methoxyacrylate]: it took 920 nM to reach half-maximal inhibition (IC50).

Consider `CCCO/N=C(\C)c1ccc(OCc2ccccc2/C(=C\OC)C(=O)OC)c(OC)c1` [Compound 35, (E)-methyl 2-(2-((4-((E)-1-(propoxyimino)ethyl)-2-methoxyphenoxy)-methyl)phenyl)-3-methoxyacrylate], for which the IC50 is 1920 nM.

In turn, `CO/C=C(/C(=O)OC)c1ccccc1COc1cc(C)c(/C=N/OCC2CO2)cc1C` (centres unmarked) [Compound 52, (E)-methyl 2-(2-((2,5-dimethyl-4-((E)-(oxirane-2-ylmethoxyimino)-methyl)phenoxy)methyl)phenyl)-3-methoxyacrylate] had an IC50 of 2250 nM.

The compound `CO/C=C(/C(=O)OC)c1ccccc1COc1cc(C)c(/C=N/OCCN2CCCC2)cc1C` [Compound 53, (E)-methyl 2-(2-((2,5-dimethyl-4-((E)-(2-(pyrrolidin-1-yl)ethoxyimino)-methyl)phenoxy)methyl)phenyl)-3-methoxyacrylate] showed an IC50 of 6640 nM.

`CCO/N=C(\C)c1cc(C)c(OCc2ccccc2/C(=C\OC)C(=O)OC)cc1C` [Compound 78, (E)-methyl 2-(2-((2,5-dimethyl-4-((E)-1-(ethoxyimino)ethyl)phenoxy)-methyl)phenyl)-3-methoxyacrylate] gave an IC50 of 20 nM.

In turn, `CO/C=C(/C(=O)OC)c1ccccc1COc1cc(/C(C)=N/OCc2ccc(C)cc2)ccc1OC` [Compound 57, (E)-methyl 2-(2-((2-methoxy-5-((E)-1-(4-methylbenzyloxyimino)ethyl)-phenoxy)methyl)phenyl)-3-methoxyacrylate] registered an IC50 of 3940 nM.

In turn, `CO/C=C(/C(=O)OC)c1ccccc1COc1cccc(OCc2ccccn2)c1` [Compound 26, (E)-methyl 2-(2-((3-(pyridin-2-ylmethoxy)phenoxy)methyl)phenyl)-3-methoxyacrylate] had an IC50 of 510 nM.

The compound `CO/C=C(/C(=O)OC)c1ccccc1COc1ccc(/C(C)=N/O)cc1OC` [Compound 34, (E)-methyl 2-(2-((4-((E)-1-(hydroxyimino)ethyl)-2-methoxyphenoxy)-methyl)phenyl)-3-methoxyacrylate] returned an IC50 of 4480 nM.

Regarding `CCO/N=C/c1cccc(OCc2ccccc2/C(=C\OC)C(=O)OC)c1` [Compound 4, (E)-methyl 2-(2-((3-((E)-(ethoxyimino)methyl)phenoxy)methyl)phenyl)-3-methoxyacrylate], the IC50 turned out to be 290 nM.

Compound `CO/C=C(/C(=O)OC)c1ccccc1COc1cc(C)c(/C=N/OCCOc2ccccc2)cc1C` [Compound 51, (E)-methyl 2-(2-((2,5-dimethyl-4-((E)-(2-phenoxyethoxyimino)methyl)-phenoxy)methyl)phenyl)-3-methoxyacrylate] returned an IC50 of 20 nM.

For `CO/C=C(/C(=O)OC)c1ccccc1COc1ccc(/C(C)=N/OCc2ccccc2)cc1OC` [Compound 36, (E)-methyl 2-(2-((4-((E)-1-(benzyloxyimino)ethyl)-2-methoxyphenoxy)-methyl)phenyl)-3-methoxyacrylate], the IC50 was determined as 880 nM.

For `CCCO/N=C/c1cccc(OCc2ccccc2/C(=C\OC)C(=O)OC)c1` [Compound 14, (E)-methyl 3-methoxy-2-(2-((3-((E)-(propoxyimino)methyl)phenoxy)-methyl)phenyl)acrylate], half-maximal inhibition (IC50) required 19900 nM.

As for `CO/C=C(/C(=O)OC)c1ccccc1COc1cc(/C=N/OCCc2ccccc2)ccc1OC` [Compound 45, (E)-methyl 2-(2-((2-methoxy-5-((E)-1-(phenylethoxyimino)methyl)-phenoxy)methyl)phenyl)-3-methoxyacrylate], 110 nM corresponded to half-maximal inhibition (IC50).

These data come from US8772290B2, “Alpha-arylmethoxyacrylate derivative, preparation method thereof, and pharmaceutical composition containing same” (Oscotech Inc., priority 2010, dated 2014).
